The values below come from patent US12600729B2, “New-type benzazepine fused ring derivative” (SHANGHAI JEYOU PHARMACEUTICAL CO., LTD., priority 2021, dated 2026).

Like-named read-outs stand apart in the source and are kept apart here.

The target of assay [1] is T1, human V1aR (Homo sapiens, UniProt P37288).
T1 construct: expressed in transfected cells; membranes prepared in house
The experiment in a line: Competitive isotope ligand binding, V1a receptor. On the procedure: The cells with high expression of human V1a receptor were amplified, collected, washed twice with PBS, resuspended with PBS containing a protease inhibitor, homogenized with a homogenizer at 15000 r/min to break the cells, and centrifuged at 4° C. and 3000 r/min for 15 minutes. The supernatant was collected, centrifuged at 20,000 r/min at 4° C. for 45 minutes. Then the supernatant was discarded to obtain a cell membrane precipitation. Buffer was added to resuspend to measure the protein concentration, aliquoted, and stored at −80° C. The cell membranes of highly expressed human V1b and V2 receptors were purchased from Perkinelmer, USA.
The stock solution of the test compound and that of the positive control were diluted to 1 mM (10-fold dilution) and 0.1 mM (100-fold dilution) with DMSO, respectively, and then sequentially subjected to a four-fold dilution with DMSO to the tenth point.
Cell membranes overexpressing human receptors were prepared with assay buffer to 5 mg/mL.
• 1. 1 μL of the compound was aspirated from the dilution plate into each well of the 96-well assay plate (the concentration of the test compound in the reaction would be diluted 100-fold). To the control well was added 1 μL of DMSO. • 2. 10 mL of membrane solution containing 5 μg/μL was prepared. • 3. To the compound assay plate was added the membrane solution from step 2 with a pipette, and each well was added with 89 μL of the membrane solution. • 4. […] The configured test plate was placed at 30° C. and incubated for 60 minutes. • 6. The membrane complexes were collected into 0.5% PEI pre-coated GF/B plate with Cell Harvester, washed 3 times with 2 mL of pre-cooled elution buffer at 4° C., and dried at 37° C. for 2 hours. • 7.
Y=Bottom+(Top−Bottom)/(1+10^((X−Log IC50))), wherein: Y is the reading value of the liquid scintillation counter, and X is the logarithmic value of the compound concentration.

The subject of assay [2] is LLC-PK1 cells. As to the kind of experiment: AVP-induced LLC-PK1 cell proliferation assay. It counts as cell-based, Porcine. Also on record: Proliferation inhibition grading, Repeated experiment I / Proliferation inhibition grading, Repeated experiment II: key to the marks not given beside the values. The following applies: LLC-PK1, AVP 10 nM, verapamil 5 μM, graded against Tolvaptan. Here is the method: Porcine renal epithelial cell LLC-PK1: purchased from ATCC, Cat #CL-101 The pathogenesis of polycystic kidney disease is related to the low intracellular calcium ion concentration of renal collecting duct epithelial cells and the cAMP-dependent excessive proliferation of cells. […] LLC-PK1 cells were incubated with M199 medium supplemented with 10% fetal bovine serum under the condition of 37° C. and 5% CO2. On the first day of the experiment, a 96-well plate was coated with 0.01% Poly-D-lysine, then each well of the plate was added with 100 μL of the above mixture. After standing at room temperature for 10 minutes, the mixture in each well was aspirated and air-dried at room temperature for 1 hour, and washed once with 200 μL 1×PBS for further use. LLC-PK1 cells were digested with trypsin, resuspended with serum-free M199 after centrifugation, counted, diluted into 1×10^5/mL cell suspension with serum-free M199 medium, and added with FBS until 1% final concentration. To a 96-well plate was transfered 200 μL of cell suspension/well. After the cells were incubated for 24 hours, the supernatant of the formulated solution was aspirated, and the cells were washed once with 200 μL of PBS. Then 160 μL of M199 medium containing 0.05% FBS and 20 μL of 10×Verapamil (final concentration of 5 μM) were sequentially added thereto, and the culture was continued for 24 hours. To the corresponding wells was respectively added 10 μL of various concentrations of the test compound (final concentration starting from 3 μM, 3-fold dilution, 8 concentration gradients) or DMSO (Min, and Max as a control) on the third day. […] On the fifth day, the culture medium was carefully aspirated. The cells were washed once with 200 μL of PBS. 90 μL of M199 serum-free medium was carefully added thereto, and then 10 μL of Alamarblue reagent was added thereto. The mixture was centrifuged at 300 rpm for 1 minute, incubated at 37° C. for 2 hours, and then tested. SpectraMax instrument was used for the sample test. The excitation light was 560 nm, and the emission light was 595 nm. Each test sample was tested in triplicate, with 6 replicates for both Min and Max, respectively. The concentration of the compound was taken as the X value, and the average value of the fluorescence intensity of each experimental well sample minus the fluorescence intensity of the background well was taken as the Y value, which represented the number of living cells in the well at the time of testing. The Grouped-Summary data-Separated bar graph in GraphPad Prism 8.0 software was used to make a bar chart for reflecting the dose-effect relationship of different compounds on AVP-induced cell proliferation. […] Data quality control: […]

T1 sequence (P37288 whole entry): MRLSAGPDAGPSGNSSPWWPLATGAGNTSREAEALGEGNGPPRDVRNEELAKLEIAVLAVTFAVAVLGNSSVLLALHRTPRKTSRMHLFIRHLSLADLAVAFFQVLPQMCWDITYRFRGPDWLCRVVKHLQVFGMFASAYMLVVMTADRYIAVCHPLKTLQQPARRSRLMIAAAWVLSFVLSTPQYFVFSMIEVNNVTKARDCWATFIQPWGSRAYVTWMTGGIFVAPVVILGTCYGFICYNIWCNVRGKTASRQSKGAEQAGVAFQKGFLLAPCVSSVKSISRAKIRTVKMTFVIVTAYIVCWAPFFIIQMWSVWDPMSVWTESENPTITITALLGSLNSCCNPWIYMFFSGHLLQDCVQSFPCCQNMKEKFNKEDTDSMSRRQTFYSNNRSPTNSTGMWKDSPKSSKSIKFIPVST

As to `O=C(Nc1ccc(C(=O)N2CC[C@@H]3CCN[C@H]3c3cc(Cl)ccc32)cn1)c1ccccc1C(F)(F)F` (single isomer, unassigned) [Compound 10A], the Ki in assay [1] (Binding affinity V1aR, N = 1, isotope-labeled vasopressin […], experiment 1) was 19.7 nM; in assay [1] (Binding affinity V1aR, N = 2, isotope-labeled vasopressin […], experiment 2), 11.1 nM; in assay [1] (isotope-labeled vasopressin […], mean ± spread, read-out: Binding affinity V1aR, mean of the two experiments), 15.4 ± 4.3 nM. In addition, in assay [2], the “Proliferation inhibition grading, Repeated experiment I” value is “+++”. For the same molecule, in assay [2], the “Proliferation inhibition grading, Repeated experiment II” value is listed as “+++”.
